Data on 1 molecule can be found in patent US8975280B2, “Deoxynojirimycin and D-arabinitol analogs and methods of using” (The Chancellor, Masters and Scholars of The University of …, priority 2006, dated 2015).

In the experiment the target is T1, glucosidase II (Homo sapiens, UniProt Q14697).
T1 construct: endogenous in cells; host or cells: HL60 cells
T1 sequence (Q14697 29-944): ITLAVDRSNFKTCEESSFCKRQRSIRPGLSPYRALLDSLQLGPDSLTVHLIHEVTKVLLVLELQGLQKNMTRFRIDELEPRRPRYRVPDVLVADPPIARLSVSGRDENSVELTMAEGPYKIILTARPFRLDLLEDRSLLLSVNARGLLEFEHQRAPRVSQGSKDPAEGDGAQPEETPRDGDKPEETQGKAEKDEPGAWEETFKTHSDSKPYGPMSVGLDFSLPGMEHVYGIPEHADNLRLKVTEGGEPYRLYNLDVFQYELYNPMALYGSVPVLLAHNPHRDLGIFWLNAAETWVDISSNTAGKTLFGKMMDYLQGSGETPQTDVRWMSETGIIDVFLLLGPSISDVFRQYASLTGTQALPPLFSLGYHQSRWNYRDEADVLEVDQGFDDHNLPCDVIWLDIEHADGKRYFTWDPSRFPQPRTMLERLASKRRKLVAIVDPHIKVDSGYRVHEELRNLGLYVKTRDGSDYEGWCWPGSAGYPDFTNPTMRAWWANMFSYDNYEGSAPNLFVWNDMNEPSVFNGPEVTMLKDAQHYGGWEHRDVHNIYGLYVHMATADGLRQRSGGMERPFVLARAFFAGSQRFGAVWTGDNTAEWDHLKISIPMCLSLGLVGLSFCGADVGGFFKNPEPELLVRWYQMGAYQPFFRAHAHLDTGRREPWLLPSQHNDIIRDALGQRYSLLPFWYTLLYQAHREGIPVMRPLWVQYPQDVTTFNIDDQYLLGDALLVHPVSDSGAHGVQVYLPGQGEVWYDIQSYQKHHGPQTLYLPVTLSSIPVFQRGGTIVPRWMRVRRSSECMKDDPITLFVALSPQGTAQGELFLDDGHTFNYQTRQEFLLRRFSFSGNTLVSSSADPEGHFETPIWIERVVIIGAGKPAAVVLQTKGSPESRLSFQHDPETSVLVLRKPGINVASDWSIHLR
T1 sequence (P14314 15-528 partner): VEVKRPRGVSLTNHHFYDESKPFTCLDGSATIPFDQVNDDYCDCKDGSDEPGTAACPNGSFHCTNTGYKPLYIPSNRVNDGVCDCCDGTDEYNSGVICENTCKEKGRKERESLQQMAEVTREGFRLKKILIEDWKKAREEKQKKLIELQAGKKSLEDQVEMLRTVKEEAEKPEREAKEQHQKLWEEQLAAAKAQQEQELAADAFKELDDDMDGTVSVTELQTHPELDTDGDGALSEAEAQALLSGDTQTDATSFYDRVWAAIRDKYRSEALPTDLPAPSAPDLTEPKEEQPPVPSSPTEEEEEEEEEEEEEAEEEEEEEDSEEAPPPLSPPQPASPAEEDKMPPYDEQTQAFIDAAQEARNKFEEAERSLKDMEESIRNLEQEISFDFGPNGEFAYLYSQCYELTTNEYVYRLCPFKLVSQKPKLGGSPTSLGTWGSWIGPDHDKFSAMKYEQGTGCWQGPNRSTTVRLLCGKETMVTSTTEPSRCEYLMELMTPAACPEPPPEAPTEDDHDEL
As to the kind of experiment: Inhibition of glucosidase II in HL60 cells, free oligosaccharide (G1M5N) analysis by NP-HPLC. The conditions noted are these: 24 h. Type of experiment: cell-based. Here is the method: The effect of an ER-glucosidase inhibitor on cells was evaluated using an assay method by modifying known methods. (H. R. Mellor et al., Cellular Effects of Deoxynojirimycin Analogues: Inhibition of N-Linked Oligosaccharide Processing and Generation of Free Glucosylated Oligosaccharides, 381 Biochem. J. 867-875 (2004). The detection of free oligosaccharides following imino sugar treatment to generate misfolded protein that is degraded in the cytosol is an accurate measure of cell ER entry and inhibition of glycoprotein processing of α-glucosidases I and II by imino sugars.
Cells were cultured to high density (×10^7 cells/ml) prior to growth in fresh medium containing NB-DNJ at varying concentrations. The cells were seeded at a lower density so as to achieve a high density at the end of the incubation period. […] The conditions for extraction of FOS were determined to maximize recovery of FOS. […]
ConA-Sepharose purified 2-AA-labeled oligosaccharides were separated by NP-HPLC using a 4.6×250 mm TSKgel Amide-80 column (Anachem, Luton, UK) with slight modifications to known methods. (D. C. Neville, et al.) The chromatography system consisted of a Waters Alliance 2695 separations module and an in-line Waters 474 fluorescence detector set at an excitation wavelength of 360 nm and emission wavelength of 425 nm. […]

For the molecule `[N-]=[N+]=Nc1ccc(NCCCCCCN2C[C@H](O)[C@@H](O)[C@H](O)[C@H]2CO)c([N+](=O)[O-])c1` [NAP-DNJ, N—(N′-{4′azido-2′-nitrophenyl)-6-aminohexyl)-deoxynojirimycin], the “concentration at which glucosidase II is inhibited in cells” value was in the range of 1 to 10 µM.
